From PubChem BioAssay (NCI)
Values joined by “and” are separate entries in the source; they are usually repeats but may differ in a detail not shown here. Identical values can stand only once.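 Protocol summary: plate cells (96-well), add compound at 5 concentrations, incubate 48 h, interpolate endpoints linearly. At the GI50, growth is halved. TGI is the concentration that stops growth completely.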 *1 amine or outer side, *2 acyl side, *3 side chain or, on linkers, in order; H or OH if unused. Where a SMILES comes first, the peptide text is derived from it. [ ]: non-standard residue; d: D form. The star is where a group is joined. X12 = NCCCCC(N[*:1])C(=O)CN1CCCC1C(=O)[*:2]; Pentadecanoyl = CCCCCCCCCCCCCCC(=O)*

Legend:
Assay in all cases: inhibition of tumour cell growth, NCI panel, 48 h
[1] = test system: 786-0 renal
[2] = test system: CAKI-1 renal
[3] = test system: COLO 205 colon
[4] = test system: HOP-92 NSCLC
[5] = test system: RPMI-8226 leukemia
[6] = test system: SF-295 CNS
[7] = test system: SNB-75 CNS
[8] = test system: SR leukemia
[9] = test system: TK-10 renal
[10] = test system: HOP-18 NSCLC
[11] = test system: SNB-78 CNS

SMILES | TGI [1] | TGI [2] | TGI [3] | TGI [4] | TGI [5] | TGI [6] | TGI [7] | TGI [8] | TGI [9] | TGI [10] | TGI [11] | GI50 [2] | GI50 [3] | GI50 [4] | GI50 [5] | GI50 [6] | GI50 [7] | GI50 [8] | GI50 [9] | GI50 [10]
O=C1CSC2=NC3=C(COC/C3=C\c3ccc(F)cc3)C(c3ccc(F)cc3)N12 (stereo unspecified) | > 100 µM | > 100 µM | > 100 µM | > 100 µM | > 100 µM | > 100 µM | > 100 µM | > 100 µM | > 100 µM |  |  |  |  |  |  |  |  |  |  | 
[O-][n+]1cc(SCc2ccccc2)ncc1SCc1ccccc1 | > 10 µM | > 10 µM | > 10 µM | > 10 µM | > 10 µM | > 10 µM | > 10 µM | > 10 µM | > 10 µM |  |  |  |  |  |  |  |  |  |  | 
CC1=NNC(N)=N/C1=C\C(Sc1ccc(Cl)cc1)c1ccc(Cl)cc1Cl (stereo unspecified) | 75.9 µM | > 67.1 µM | 50.4 µM | > 50.5 µM | 61.2 µM | 52.9 µM | 32.9 µM | > 100 µM | 45.9 µM |  |  |  |  |  |  |  |  |  |  | 
CC(=O)OC1COC(n2c(N)c(C#N)c(-c3ccccc3)c(C#N)c2=S)C(OC(C)=O)C1OC(C)=O (stereo unspecified) | > 100 µM | > 100 µM | > 100 µM | > 100 µM and 92.6 µM | 58.7 µM and 68.3 µM | > 100 µM | 86.8 µM and > 100 µM | 46.3 µM and 52.2 µM | 94 µM |  |  |  |  |  |  |  |  |  |  | 
CC1[C@@H]2C[C@@H]3O[C@@]34[C@H]3CCC5Cc6nc7c(nc6C[C@@]5(C)C3(O)CC(=O)[C@@]24CO[C@]12OC(C)(C)CC2O)CC1CC[C@@H]2C3=C[C@H]4O[C@@]5(O[C@@](C)(CO)C[C@@H]5O)C(C)[C@@]4(O)[C@]3(C)[C@@H](O)CC2[C@]1(C)C7 (stereo partly specified) |  | > 3.52 µM | 0.156 µM | 0.976 µM | > 3.52 µM | 0.0164 µM | 0.028 µM |  |  | > 3.52 µM | 0.622 µM |  |  |  |  |  |  |  |  | 
Cc1cc(N)c2cc(NC(=O)CCCCCCCCC(=O)Nc3ccc4nc(C)cc(N)c4c3)ccc2n1 | > 100 µM | > 100 µM | > 100 µM | 80.3 µM | > 100 µM | > 88.7 µM | > 100 µM | > 100 µM | > 100 µM | > 100 µM | > 100 µM |  |  |  |  |  |  |  |  | 
O=C(OCC(OC(=O)c1ccccc1)C1CC(C(O)C2CCCCC2)C(=O)O1)c1ccccc1 (stereo unspecified) | > 100 µM | > 100 µM | > 100 µM | > 100 µM | 78.9 µM | > 100 µM | > 100 µM | 44.8 µM | > 100 µM |  |  |  |  |  |  |  |  |  |  | 
CCCCCCCCCCCCCCC(=O)NC(CCCCN)C(=O)CN1CCCC1C(=O)NCC(=O)NC(Cc1ccccc1)C(=O)N1CCCC1C(=O)NC(CO)C(=O)NC(Cc1ccc(O)cc1)C(=O)NC(CCCCN)C(=O)NC(CC(C)C)C(=O)NC(CCCN=C(N)N)C(=O)N1CCCC1C(=O)NCC(N)=O (stereo unspecified) (Pentadecanoyl-[X12]GFPSYKLRPG-NH2; configuration not given here) |  | 48.7 µM | 33.8 µM | 37.4 µM | 30.8 µM | 57.3 µM | 58.5 µM | 50.8 µM | 32.9 µM |  |  | 20.6 µM | 15.6 µM | 15.9 µM | 14.7 µM | 26.2 µM | 27.6 µM | 16.2 µM | 11.7 µM | 
CCOC(=O)C1=C(C)N(c2ccc(Cl)cc2)C2(O)C=CC(=O)C3C(=O)N(c4ccccc4)C(=O)C132 (stereo unspecified) | 3.09 µM | 4.72 µM | 3.26 µM | 1.96 µM | 3.77 µM | 5.25 µM | 3.25 µM | 1.14 µM | 3.49 µM |  |  |  |  |  |  |  |  |  |  | 
O=C(N(C1=CCCC1)N(c1ccccc1)c1ccccc1)C(F)(F)F | 96.5 µM | 80.4 µM | 40.6 µM | 33.9 µM |  | 77 µM | > 100 µM | 90.4 µM | > 100 µM |  |  |  |  |  |  |  |  |  |  | 
COc1ccc(-c2nc3ncccn3c2-c2ccc(S(C)(=O)=O)cc2)cc1 | > 100 µM | 68.7 µM | > 100 µM | > 100 µM | > 100 µM | > 100 µM | > 100 µM | > 100 µM |  |  |  |  |  |  |  |  |  |  |  | 
CN(C)CCSc1nccc(-c2ccc(-c3ccnc(SCCN(C)C)n3)s2)n1 |  | 33.1 µM | 21.7 µM | 28.1 µM | 10.1 µM | 26 µM | 28.2 µM |  |  | 67.2 µM | 31 µM |  |  |  |  |  |  |  |  | 
Cc1cc(C)c(N)c(CO)c1 | > 100 µM | > 32.1 µM and 27.5 µM | > 100 µM | > 100 µM | > 100 µM | > 100 µM | > 100 µM | > 100 µM | 18.7 µM and > 38.5 µM |  |  |  |  |  |  |  |  |  | 2.61 µM and 6.9 µM | 
O=c1[nH]c(=O)c2c([nH]1)[nH]c1ccccc12 | > 100 µM | > 100 µM | > 100 µM | > 100 µM | > 100 µM | > 100 µM | > 100 µM | > 100 µM | > 100 µM |  |  |  |  |  |  |  |  |  |  | 
NC(=O)c1ccc(S(=O)(=NS(=O)(=O)c2ccccc2)c2ccc(C(N)=O)cc2)cc1 | > 100 µM | > 100 µM | > 100 µM | > 100 µM | > 100 µM | > 100 µM | > 100 µM | > 100 µM | > 100 µM |  |  |  |  |  |  |  |  |  |  | 
CSC(=N/N=C(\C)c1ccc(S(=O)(=O)N(C)c2ccccc2)cc1)SC | > 100 µM | > 100 µM | > 100 µM | > 100 µM | > 100 µM | > 100 µM | > 100 µM | > 100 µM | > 100 µM |  |  |  |  |  |  |  |  |  |  | 
COc1cccc2c1C(=O)c1c(O)c3c(c(O)c1C2=O)C[C@@](O)(C(=O)CO)CC3OC1CC(NCCCCC(OC(C)=O)OC(C)=O)C(O)C(C)O1 (stereo partly specified) | > 1 µM | 0.00812 µM |  | 0.00682 µM and 0.0079 µM | 0.00313 µM | 0.0335 µM | 0.00432 µM and 0.00344 µM | 0.0027 µM | > 1 µM | 0.00926 µM and 0.0807 µM | 0.00804 µM |  |  | 0.00286 µM | 0.000528 µM | 0.00227 µM | 0.000927 µM |  |  | 7.8 nM
C[S+](C)C1(c2ccccc2)C(=O)c2ccccc2C1=O | > 100 µM | > 100 µM | > 100 µM | > 100 µM | > 100 µM | 99.2 µM | > 89.2 µM | > 100 µM | > 100 µM | > 100 µM | > 100 µM |  |  |  |  |  |  |  |  | 
